Source: patent US6838237B2, “Antigenically reactive regions of the hepatitis a virus polyprotein” (The United States of America as represented by the …, priority 1996, dated 2005)
Values joined by “and” are separate entries in the source; they are usually repeats but may differ in a detail not shown here. Equal values may be shown once.

Columns and labels:
[1] = tested on: anti-HAV-positive sera; experiment: EIA for anti-HAV: synthetic peptides adsorbed to wells, reacted with anti-HAV-positive acute sera; type: binding, human; details: for Reactivity with acute sera (reactive/tested): experiment 1: sera 1:100, anti-human IgG-HRP, cutoff P/N 3.0; for Reactivity with acute sera (percent of sera reactive): experiment 1: sera 1:100, cutoff P/N 3.0; for P/N for acute sera (mean) / P/N for acute sera (range, in parentheses): OD493 positive/negative ratio of reactive sera
Method in brief: (§1)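 Peptides at 10 mg/ml in 0.1 M PBS pH 7.5 adsorbed to wells 12 h at room temperature; sera diluted in PBS-Tween with 10% goat serum, incubated 60 min at 37 °C. Readout OD493 as P/N ratio, cutoff 3.0 (negative mean plus ≥3.5 SD).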

[2] = tested on: anti-HAV-negative sera; experiment: EIA for anti-HAV: synthetic peptides reacted with anti-HAV-negative sera; type: binding, human; details: experiment 1: sera 1:100, cutoff P/N 3.0
Method in brief: as §1

Row | Sequence | Reactivity with acute sera (reactive/tested) [1] | Reactivity with acute sera (percent of sera reactive) [1] [%] | P/N for acute sera (mean) ([1]; experiment 1) | P/N for acute sera (range, in parentheses) ([1]; experiment 1) | Reactivity with negative sera (reactive/tested) [2] | P/N for acute sera (individual values) ([1]; experiment 1, single sera listed with semicolon)
1 | RIMKVEFTQCSMNVVSKTLF [YK-1394] | 13/41 | 31.7 | 6.98 | (4.05-12.93) | 3/27 | –
2 | LGMTATSADKNVPQLKPVSE [YK-1429] | 5/41 | 12.2 | 10.25 | (4.92-27.38) | 0/27 | –
3 | KNPHNDMLNVNLAKTNDAIK [YK-1363] | 5/41 | 12.2 | 5.96 | (5.31-6.33) | 0/41 | –
4 | DKPGSKKTQGEKFFLIHSAD [YK-1212] | 3/41 | 7.3 | 3.5 | (3.04-3.96) | 0/46 | –
5 | GGIKITHFTTWTSIPTLAAQ [YK-1236] | 22/46 | 47.8 | 4.68 | (3.1-9.33) | 0/48 | –
6 | DRTAVTGASYFTSVDQSSVH [YK-1208] | 5/41 | 12.2 | 4.29 | (3.27-5.54) | 0/46 | –
7 | HFLCTFTFNSNNKEYTFPIT [YK-1279] | 7/41 | 17.1 | 3.43 | (3.11-3.67) | 1/46 | –
8 | MLSKYSLPIVEEPEDYKEAS [YK-1399] | 5/41 | 12.2 | 6.86 | (4.05-16.46) | 1/27 | –
9 | PLNSNAMLSTESMMSRIAAG [YK-1310] | 3/48 | 6.3 | – | – | 0/51 | 3.68 and 5.23
10 | RMYWGPAISYFHLNPGFHTG [YK-1414] | 1/41 | 2.4 | 3.35 | – | 0/27 | –
11 | KINLADRMLGLSGVQEIKEQ [YK-1331] | 13/48 | 27.1 | 5.71 | (3.71-10.3) | 0/51 | –
